Measurements: patent US20100168038A1, “USE OF COMPOUNDS IN COMBINATION WITH GAMMA-IRRADIATION FOR THE TREATMENT OF CANCER” (priority 2006, published 2010)
Values joined by “and” are separate entries in the source; they are usually repeats but may differ in a detail not shown here. Equal values may be shown once. Residues, ends and D or L forms follow the SMILES beside them.

Legend:
[1] = test system: HeLa cells (human cervical carcinoma); test: Tumor growth of HeLa cells in CB.17 SCID mice, Z-GLA-OH with gamma-irradiation; format: in vivo; conditions: Z-GLA-OH + gamma-irradiation 1.5 Gy/dose
TPP II = target: T1, TPP II (Mus musculus, UniProt Q64514); test: TPP II peptidase assay: cleavage of fluorogenic substrate AAF-AMC by enriched TPP II; format: biochemical; conditions: for cleavage of AAF-AMC in presence of compound, mean: mean of 3 readings; for cleavage of AAF-AMC in presence of compound: single reading
T1 construct: 1 ug of high molecular weight protein was used as enzyme in peptidase assays; endogenous in cells
Method: In one non-limiting example of purification of TPP II, 100×10^6 cells (such as EL-4 cells) were sedimented and lysed by vortexing in glass beads and homogenisation buffer (50 mM Tris Base pH 7.5, 250 mM Sucrose, 5 mM MgCl2, 1 mM DTT). Cellular lysates were subjected to differential centrifugation; first the cellular homogenate was centrifuged at 14,000 rpm for 15 min, and then the supernatant was transferred to ultra-centrifugation tubes. Next the sample was ultra-centrifugated at 100,000×g for 1 hour, and the supernatant (denoted as cytosol in most biochemical literature) was subjected to 100,000×g centrifugation for 5 hours, which sedimented high molecular weight cytosolic proteins/protein complexes. The resulting pellet dissolved in 50 mM Tris Base pH 7.5, 30% Glycerol, 5 mM MgCl2, and 1 mM DTT, and 1 ug of high molecular weight protein was used as enzyme in peptidase assays.
It is possible to test the activity of TPP II using for example the substrate AAF-AMC (Sigma, St. Louis, Mo.). This may for example be used at 100 uM concentration in 100 ul of test buffer composed of 50 mM Tri Base pH 7.5, 5 mM MgCl2 and 1 mM DTT. It is possible to stop reactions using dilution with 900 ul 1% SDS solution. Cleavage activity may be measured for example by emission at 460 nm in a LS50B Luminescence Spectrometer (Perkin Elmer, Boston, Mass.).
Protein Purification, Peptidase Assays and Analysis of DNA Fragmentation. 100×10^6 cells were sedimented and lysed by vortexing in glass beads and homogenisation buffer (50 mM Tris Base pH 7.5, 250 mM Sucrose, 5 mM MgCl2, 1 mM DTT). Cellular lysates were submitted to differential centrifugation where a supernatant from a 1 hour centrifugation at 100,000×g (cytosol) was submitted to 100,000×g centrifugation for 3-5 hours, which sedimented high molecular weight cytosolic proteins/protein complexes. The resulting pellet dissolved in 50 mM Tris Base pH 7.5, 30% Glycerol, 5 mM MgCl2, and 1 mM DTT, and 1 micro-g of high molecular weight protein was used as enzyme in peptidase assays or in Western blotting for TPP II expression. To test the activity of TPP II we used the substrate AAF-AMC (Sigma, St. Louis, Mo.), at 100 micro-M concentration in 100 micro-l of test buffer composed of 50 mM Tri Base pH 7.5, 5 mM MgCl2 and 1 mM DTT. Cleavage activity was measured by emission at 460 nm in a LS50B Luminescence Spectrometer (Perkin Elmer, Boston, Mass.). For analysis of DNA fragmentation cells were seeded in 12-well plates at 10^6 cells/ml and exposed to 25 micro-M etoposide, a DNA topoisomerase II inhibitor commonly used as an apoptosis-inducing agent, to starvation (50% PBS). Cells were seeded at 10^6 cells/ml in 12-well plates and incubated for the indicated times, usually 18-24 hours. DNA from EL-4 control and adapted cells was purified by standard chloroform extraction, and 2.5 micro-g of DNA was loaded on 1.8% agarose gel for detection of DNA from apoptotic cells.
TPP II protein was enriched, and then a TPP II-preferred fluorogenic substrate AAF-AMC was used. 100×10^6 cells were sedimented and lysed by vortexing in glass beads and homogenisation buffer (50 mM Tris Base pH 7.5, 250 mM Sucrose, 5 mM MgCl2, 1 mM DTT). Cellular lysates were subjected to differential centrifugation; first the cellular homogenate was centrifuged at 14,000 rpm for 15 min, and then the supernatant was transferred to ultra-centrifugation tubes. Next the sample was ultra-centrifugated at 100,000×g for 1 hour, and the supernatant (denoted as cytosol in most biochemical literature) was subjected to 100,000×g centrifugation for 5 hours, which sedimented high molecular weight cytosolic proteins/protein complexes.

[2] = test system: Lewis Lung Carcinoma (LLC) cells; test: Tumor growth of Lewis Lung Carcinoma (LLC) in mice, compound with or without gamma-irradiation; format: in vivo, mouse; conditions: for tumor volume / tumor volume, mean: LLC; for tumor volume: single mouse; for tumor volume, mean: group mean
Text: Tumor Growth Experiments. Tumor cells were washed in PBS and resuspended in a volume of 200 micro-l per inoculate. The cells were then inoculated into the right flank at 10^6 per mouse and growth of the tumor was monitored by measurement two times per week. The initiation of anti-tumor treatment of the mice was to some extent individualized according to when tumor growth started in each mouse. The mice were irradiated with 4 Gy prior to tumor inoculation in order to inhibit anti-tumor immune responses. The tumor volume was calculated as the mean volume in mice with tumors growth, according to (a1×a2×a3)/2 (the numbers ai denote tumor diameter, width and depth). The time of first palpation varied between different mice, although the general pattern of growth was similar in virtually all of the mice. In most diagrams a log-scale is used to better visualize the therapeutic effects against small tumors, i.e. the presence of complete rejections. For inhibition of TPPII in vivo we made intraperitoneal injections with 13.8 mg per kg of body weight (14 micro-l of a 50 mM solution/mouse) of the Subtilisin inhibitor Z-Gly-Leu-Ala-OH (Z-GLA-OH, Bachem, Weil am Rhein, Germany) twice per week, diluted into 200 micro-l PBS. All gamma-irradiations were full body exposures.
Table 2 contains in vivo data, showing tumor volume in mm^3, in groups of 4 mice with LLC (Lewis Lung Carcinoma). Mice were sacrificed if the tumor volume exceeded 1000 mm^3. Some mice were administered with the compounds alone; others were additionally administered with irradiation. Mice were given the compounds, and in some cases also gamma irradition (400 Rad), at days 7, 10, 14, 18 and 21.

Stability in serum = format: in vitro ADME
[3] = compound + gamma irradiation (400 Rad), day 10
[4] = compound + gamma irradiation (400 Rad), day 14
[5] = compound + gamma irradiation (400 Rad), day 18
[6] = compound + gamma irradiation (400 Rad), day 21

T1 sequence (Q64514 2-1262 limits assumed): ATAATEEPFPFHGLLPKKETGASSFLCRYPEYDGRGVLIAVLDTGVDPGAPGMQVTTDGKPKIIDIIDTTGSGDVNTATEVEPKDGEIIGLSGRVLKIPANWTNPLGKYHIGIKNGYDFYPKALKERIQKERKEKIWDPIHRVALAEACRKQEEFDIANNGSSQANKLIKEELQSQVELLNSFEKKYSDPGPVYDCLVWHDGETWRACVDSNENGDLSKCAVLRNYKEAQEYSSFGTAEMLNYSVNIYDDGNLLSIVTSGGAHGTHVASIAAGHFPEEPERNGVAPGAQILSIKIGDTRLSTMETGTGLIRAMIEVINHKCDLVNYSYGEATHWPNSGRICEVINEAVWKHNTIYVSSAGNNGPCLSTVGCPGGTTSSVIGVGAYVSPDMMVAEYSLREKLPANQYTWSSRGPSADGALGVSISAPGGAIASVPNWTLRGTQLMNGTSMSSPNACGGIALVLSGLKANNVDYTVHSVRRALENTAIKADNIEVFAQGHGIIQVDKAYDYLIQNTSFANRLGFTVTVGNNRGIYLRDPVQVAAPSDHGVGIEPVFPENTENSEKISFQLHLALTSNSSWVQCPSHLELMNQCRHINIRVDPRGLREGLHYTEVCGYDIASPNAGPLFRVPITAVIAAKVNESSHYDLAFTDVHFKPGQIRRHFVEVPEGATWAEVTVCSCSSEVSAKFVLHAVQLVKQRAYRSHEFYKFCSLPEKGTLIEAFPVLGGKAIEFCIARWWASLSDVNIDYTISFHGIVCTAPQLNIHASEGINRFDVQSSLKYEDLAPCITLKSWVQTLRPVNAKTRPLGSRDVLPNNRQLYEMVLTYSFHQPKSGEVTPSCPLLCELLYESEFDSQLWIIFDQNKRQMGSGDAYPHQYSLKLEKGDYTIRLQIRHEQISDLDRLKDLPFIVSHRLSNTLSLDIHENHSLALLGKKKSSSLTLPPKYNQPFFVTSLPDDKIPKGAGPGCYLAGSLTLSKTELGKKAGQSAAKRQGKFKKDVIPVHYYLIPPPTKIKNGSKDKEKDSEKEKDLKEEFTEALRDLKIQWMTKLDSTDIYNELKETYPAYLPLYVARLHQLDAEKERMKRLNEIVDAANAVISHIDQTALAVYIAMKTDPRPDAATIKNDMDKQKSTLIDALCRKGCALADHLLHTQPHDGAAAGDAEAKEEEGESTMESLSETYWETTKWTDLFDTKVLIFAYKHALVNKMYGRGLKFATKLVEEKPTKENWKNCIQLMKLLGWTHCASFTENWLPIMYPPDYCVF

For `CC(C)C[C@H](NC(=O)CNC(=O)OCc1ccccc1)C(=O)N[C@@H](C)C(=O)O` [Z-GLA-OH, Z-Gly-Leu-Ala-OH] (HELM PEPTIDE1{[O=C(OCc1ccccc1)[*:2]].G.L.A}$$$$V2.0), the tumor response [1] was “strong tumor regression”, the “TPPII inhibition, in words” value (TPP II) was “efficiently inhibited TPPII” and the “cleavage of AAF-AMC in presence of compound, mean” value (from here on “cleavage of AAF-AMC … mean”) (TPP II; compound 1 nM) was 32.85 fluorometric units. The “cleavage of AAF-AMC in presence of compound” value (TPP II; compound 1 nM) was 32.54 fluorometric units and 32.61 fluorometric units and 33.41 fluorometric units, the “cleavage of AAF-AMC … mean” value (TPP II; compound 10 nM) was 22.70 fluorometric units and the “cleavage of AAF-AMC in presence of compound” value (TPP II; compound 10 nM) was 21.74 fluorometric units and 21.93 fluorometric units and 24.44 fluorometric units. The “cleavage of AAF-AMC … mean” value (TPP II; compound 100 nM) was 14.35 fluorometric units, the “cleavage of AAF-AMC in presence of compound” value (TPP II; compound 100 nM) was 14.43 fluorometric units and 14.26 fluorometric units and 14.37 fluorometric units and the “cleavage of AAF-AMC … mean” value (TPP II; compound 1 uM) was 11.60 fluorometric units. For the same compound, the “cleavage of AAF-AMC in presence of compound” value (TPP II; compound 1 uM) was 11.43 fluorometric units and 11.9 fluorometric units and 11.46 fluorometric units, the “cleavage of AAF-AMC … mean” value (TPP II; compound 10 uM) was 7.21 fluorometric units and the “cleavage of AAF-AMC in presence of compound” value (TPP II; compound 10 uM) was 6.47 fluorometric units and 7.66 fluorometric units and 7.49 fluorometric units. For the same compound, the “cleavage of AAF-AMC … mean” value (TPP II; compound 100 uM) was 1.38 fluorometric units, the “cleavage of AAF-AMC in presence of compound” value (TPP II; compound 100 uM) was 1.14 fluorometric units and 1.44 fluorometric units and 1.55 fluorometric units and the Ki (TPP II; partially purified TPPII enzyme, fluorimetry, read-out: Ki50, inhibited TPPII cleavage of the substrate AAF-AMC) was about 10 nM. The tumor volume ([2]; compound + gamma irradiation (400 Rad) at days 7, 10, 14, 18, 21, day 7) was 4.0 mm^3 and 6.0 mm^3 (2×) and 0.0 mm^3, the “tumor volume, mean” value ([2]; compound + gamma irradiation (400 Rad), day 7) was 4.00 mm^3 and the “tumor volume, mean” value [2, 3] was 64.00 mm^3. The tumor volume [2, 3] was 48.0 mm^3 and 128.0 mm^3 and 40.0 mm^3 (2×), the “tumor volume, mean” value [2, 4] was 84.00 mm^3 and the tumor volume [2, 4] was 72.0 mm^3 (2×) and 144.0 mm^3 and 48.0 mm^3. The “tumor volume, mean” value [2, 5] was 25.38 mm^3, the tumor volume [2, 5] was 32 mm^3 (2×) and 24 mm^3 and 13.5 mm^3 and the “tumor volume, mean” value [2, 6] was 7.00 mm^3. The tumor volume [2, 6] was 13.5 mm^3 (2×) and 0.5 mm^3 (2×), the “tumor volume, mean” value ([2]; compound alone, day 7) was 5.88 mm^3 and the tumor volume ([2]; compound alone, day 7 after tumor inoculation) was 4.0 mm^3 and 0.0 mm^3 and 6.0 mm^3 and 13.5 mm^3. For the same compound, the “tumor volume, mean” value ([2]; compound alone, day 10) was 150.25 mm^3, the tumor volume ([2]; compound alone, day 10) was 256.0 mm^3 and 192.0 mm^3 and 9.0 mm^3 and 144.0 mm^3 and the “tumor volume, mean” value ([2]; compound alone, day 14) was 748 mm^3. The tumor volume ([2]; compound alone, day 14) was 660.0 mm^3 and 864.0 mm^3 and 720.0 mm^3, the “tumor volume, mean” value ([2]; compound alone, day 18) was 1300.67 mm^3 and the tumor volume ([2]; compound alone, day 18) was 864 mm^3 and 1470 mm^3 and 1568 mm^3. For the same compound, the tumor volume ([2]; compound alone, day 21) was 2048.0 mm^3, the “effect on LLC tumors” value ([2]; Z-GLA-OH only, in the absence of gamma-irradiation) was “no effect” and the tumor response ([2]; established LLC tumors, gamma-irradiation 4 Gy doses + Z-GLA-OH injection) was “complete regression”. The stability in serum (Stability in serum) was “relatively stable in serum”.
